{
  "source": "paper PMC6384891",
  "about": "“An automated microliter-scale high-throughput screening system (MSHTS) for real-time monitoring of protein aggregation using quantum-dot nanoprobes” (Scientific Reports, 2019)",
  "origin": "cited, not measured here",
  "test_system": "Aβ",
  "set-up": "method as in PMID 15511626",
  "details": "cited from earlier work",
  "data": [
    {"substance": "Tannic acid", "values": [
      {"measurement": "inhibition of Aβ aggregation (in words)", "value": "dose-dependently inhibited"}
    ]}
  ]
}
